Measurements: US20150290354A1, “NONWOVEN FIBER MATERIALS” (NORTH CAROLINA STATE UNIVERSITY, priority 2012, published 2015)
“Also recorded” adds a separate entry of the source.

Legend:
Assay in all cases: Minimum inhibitory / bactericidal concentration (MIC/MBC) test, 96-well serial dilution
Escherichia coli J53 = type: cell-based; conditions: n=6
Description: (§1) A minimum inhibitory concentration (MIC) test was conducted to measure the efficiency of certain silver-based antimicrobials against each bacterial isolate. A sterile round-bottom plastic 96-well plate containing […] of serially 1:2 diluted concentrations of antimicrobial solutions was inoculated with […] of 5-8×10^5 CFU/ml of each bacterial isolate. Each antimicrobial sample was tested at 15 serially diluted concentrations starting at their original highest concentration (0.015-1000 μg/ml).
(§2) After 24 h of incubation, 10 μl of the suspension from all of the clear wells (showing no bacterial growth) was dropped onto a MH agar plate and incubated for 24 h.
(§3) The mass concentration of these nanoparticles dispersed in water was 1.0 mg/mL The Silvadur ET solution containing 2.6-3.1 wt % silver ions was used at its original concentration (1.0 mg/mL). Silver nitrate was also dissolved in distilled water to create a 1 mg/mL solution. A gram negative (Escherichia coli J53) and gram positive (staphylococcus aureus—a common bacteria to cause skin infections) bacteria were employed for the experiment. Cation-adjusted Mueller-Hinton (MH) broth and agar (Difco Laboratories, Detroit, Mich., USA) were utilized to prepare bacterial cultivating medium. Isolated bacterial colonies were grown overnight in an incubator (37° C., 5% CO2) from frozen samples on an agar plate. For Agresistant bacteria (E. coli J53 [pMG101]), […] ampicillin sodium salt (Fisher Scientific, USA) was also added to the agar plates. The bacterial colony was suspended in phosphate buffered saline (PBS) to obtain 0.5 McFarland (10^5 CFU/ml). Microplates were incubated at 37° C. and shaken at 200 rpm for 24 hours. To control the accuracy of bacterial seeding density, bacteria were diluted in PBS at 103, 104, 105, and 106 and cultured overnight.
(§4) A gram negative (Escherichia coli J53) and gram positive (staphylococcusaureus, a common bacteria that causes skin infections) bacteria were employed for the experiment. Cation-adjusted Mueller-Hinton (MH) broth and agar (Difco Laboratories, Detroit, Mich., USA) were used to prepare bacterial cultivating medium. Isolated bacterial colonies were grown overnight in an incubator (37° C., 5% CO2) from frozen samples on an agar plate. For Ag-resistant bacteria (E. coli J53 [pMG101]) […] ampicillin sodium salt (Fisher Scientific, USA) was also added to the agar plates. The bacterial colony was suspended in phosphate buffered saline (PBS) to get 0.5 McFarland (10^5 CFU/ml). Microplates were incubated at 37° C. and shaken at 200 rpm for 24 h. To control the accuracy of bacterial seeding density, bacteria were diluted in PBS at 10^3, 10^4, 10^5, and 10^6 and plated overnight.
as §1, with “The minimum” for “A minimum”, “of silver based” for “of certain silver-based”, “μg/ml). […] After 24 h of incubation, 10 μl of the suspension from all of the clear wells (showing no bacterial growth) was dropped onto a MH agar plate and incubated for 24 h.” for “μg/ml).”

Staphylococcus aureus = type: cell-based; conditions: n=6
Description: as §1, §2, §3, §4
as §1, with “The minimum” for “A minimum”, “of silver based” for “of certain silver-based”, “μg/ml). […] After 24 h of incubation, 10 μl of the suspension from all of the clear wells (showing no bacterial growth) was dropped onto a MH agar plate and incubated for 24 h.” for “μg/ml).”

[1] = system: E. Coli J53pMG101 (silver resistant); type: cell-based, Escherichia coli; conditions: up to 1000 μg/ml
Description: as §1, §2
The mass concentration of these nanoparticles dispersed in water was 1.0 mg/mL The Silvadur ET solution containing 2.6-3.1 wt % silver ions was used at its original concentration (1.0 mg/mL). Silver nitrate was also dissolved in distilled water to create a 1 mg/mL solution. A gram negative (Escherichia coli J53) and gram positive (staphylococcus aureus—a common bacteria to cause skin infections) bacteria were employed for the experiment. Cation-adjusted Mueller-Hinton (MH) broth and agar (Difco Laboratories, Detroit, Mich., USA) were utilized to prepare bacterial cultivating medium. Isolated bacterial colonies were grown overnight in an incubator (37° C., 5% CO2) from frozen samples on an agar plate. […]

[2] = Table 1, Example 1, 24 h incubation

O=[N+]([O-])[O-].[Ag+] [Silver nitrate]
Minimum Inhibitory Concentrations (MIC) Escherichia coli J53 (Escherichia coli J53; [2]): 7.81 µg/mL
Minimum Bacterial Concentrations (MBC) Escherichia coli J53 (Escherichia coli J53; Table 2, Example 1): 15.62 µg/mL
Minimum Inhibitory Concentrations (MIC) Escherichia coli J53 (Escherichia coli J53; Table 9, Example 4): 7.81 µg/mL
Minimum Bacterial Concentrations (MBC) Escherichia coli J53 (Escherichia coli J53; Table 10, Example 4): 15.62 µg/mL
Minimum Inhibitory Concentrations (MIC) Staphylococcus aureus (Staphylococcus aureus; [2]): 15.62 µg/mL
Minimum Bacterial Concentrations (MBC) Staphylococcus aureus (Staphylococcus aureus; Table 2, Example 1): 31.25 µg/mL
Minimum Inhibitory Concentrations (MIC) Staphylococcus aureus (Staphylococcus aureus; Table 9, Example 4): 15.62 µg/mL
Minimum Bacterial Concentrations (MBC) Staphylococcus aureus (Staphylococcus aureus; Table 10, Example 4): 31.25 µg/mL
Observation of silver resistant E. coli J53 (pMG101) in the presence of the antimicrobial [1]: confirmed the resistance of E. coli J53 to silver; also recorded: confirmed its resistance to silver
